Values joined by “and” are separate entries in the source; they are usually repeats but may differ in a detail not shown here. Equal entries are not always repeated. Where two headings read alike, the source gives them in different places. Values belong to the compound of their own block, whether it stands above or below them.
Columns and labels:
TOPK = molecular target: T1, TOPK (Homo sapiens, UniProt Q96KB5); experiment: Microscale thermophoresis (MST) binding assay; details: labeled TOPK 50 nM, 25°C, means ± SD for three experiments
T1 construct: hexa-histidine; made in house; host or cells: Escherichia coli BL21 (DE)
T1 sequence (Q96KB5 1-322): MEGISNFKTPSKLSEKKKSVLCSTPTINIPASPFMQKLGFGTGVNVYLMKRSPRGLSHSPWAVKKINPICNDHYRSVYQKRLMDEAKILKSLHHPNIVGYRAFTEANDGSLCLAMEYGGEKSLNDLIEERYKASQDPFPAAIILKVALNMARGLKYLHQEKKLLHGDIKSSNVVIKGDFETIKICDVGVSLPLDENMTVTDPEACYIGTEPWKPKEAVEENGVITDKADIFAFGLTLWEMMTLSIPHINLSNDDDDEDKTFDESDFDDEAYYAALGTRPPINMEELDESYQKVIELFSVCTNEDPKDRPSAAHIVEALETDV
From the text: To validate results of the virtual ligand screening, we employed microscale therm ophoresis method (MST) to assay the binding affinity between compounds and TOPK. This technology detected fluorescent changes of molecules during thermophoresis, to quantify protein-protein interactions or protein-small molecule interactions with high sensitivity and low sample cost.
Human TOPK gene (Accssion number: NM_018492) was cloned into the pET26b vector (Novagen). The expression construct pET26b-TOPK was transformed into Escherichia coli strain BL21 (DE) (Invitrogen) and selected on kanamycin plates. The transformed cells were cultivated in Luria-Bertani (LB) media at 37°C in the presence of kanamycin until the optical density (OD) reached 0.8. Cells were then induced with 0.4 mM IPTG (isopropyl-β-D-1-thiogalactopyranoside) for 16 h at 20°C. The cells harvested by centrifugation were lysed by ultrasonication on ice in a buffer containing 20 mM Tris, pH 8.5, 200 mM NaCl, 5 mM mercaptoethanol, 0.1% TritonX-100, and 5% glycerol.
Soluble hexa-histidine tagged TOPK was bound to Ni-agarose affinity resin (Qiagen), washed with buffer A (20 mM Tris, pH 8.5, 200mM NaCl, and 10 mM imidazole), and eluted with buffer B (20 mM Tris, pH 8.8, 250 mM NaCl, and 150 mM imidazole).
Recombinant TOPK was labeled with the Monolith NT™ Protein Labeling Kit RED (Cat # L001) according to the supplied labeling protocol. Labeled TOPK was used in a concentration of 50 nM. The samples were diluted in a 20 mM HEPES (pH 7.4) and 0.5 (v/v) % Tween-20. The prazoles stocks were dissolved in 10% DMSO in a concentration of 1 mM. 1mM prazoles were used as the highest concentration for serial dilutions. After 10minutes incubation at room temperature, the samples were loaded into Monolith^TM standard-treated capillaries and the thermophoresis was measured at 25°C after 30 minutes incubation on a Monolith NT.115 instrument (NanoTemper Technologies, München, Germany). Laser power was set to 20% using 30 seconds on-time. The LED power was set to 100%. The dissociation constant Kd values were fitted by using the NTAnalysis software (NanoTemper Technologies, München, Germany).

HCT116 cells [1] = experiment: Cell viability (cck8) assay, HCT116; type: cell-based; details: Homo sapiens, HCT-116, read-out: IC50 for HCT116 cell activities
Description: (§1) To estimate cell viability, human colon cancer HCT 116, ES-2, A549 and SW1990 cells (5000 cells/well) were seeded in 96-well plates for 24 h at 37°C in a 5% CO2 incubator. […] All experiments were performed in triplicate, and the mean absorbance values were calculated.

ES-2 cells [2] = experiment: Cell viability (cck8) assay, ES-2; type: cell-based; details: Homo sapiens, read-out: IC50, growth of ES-2 cells
Description: as §1

[3] = tested on: A549, HCT116, ES-2 and SW1990 cells; experiment: Cell viability (cck8) assay, 4 TOPK-positive cancer cell lines; type: cell-based; details: Homo sapiens; range over A549, HCT116, ES-2, SW1990; read-out: IC50 values, growth inhibition across the cell lines
Description: TOPK protein levels were measured by western blot in cancer cell lines derived from various cancer types, such as lung cancer (A549), colon cancer (HCT116), human ovarian cancer (ES-2) and pancreatic cancer cell (SW1990).
as §1

HCT116 cells [4] = experiment: Apoptosis by flow cytometry (Annexin V/propidium iodide), HCT116; type: cell-based, human; details: HCT116, 50 μM, 24 h; control 2%
Description: (§2) Cells were pre-treated with different concentrations of ilaprzole for 24 h, and then the cellular apoptosis was measured by using flow cytometry. […] Apoptotic cells were assessed by staining PBS washed cells with phycoerythrin (PE)-conjugated annexin-V (BD Pharmingen) for 10-15 minutes in incubation buffer (Annexin-V-FLUOS Staining Kit, Roche). Fluorescence was recorded by flow cytometry using the FACS Aria (BD Bio sciences).

ES-2 cells [5] = experiment: Apoptosis by flow cytometry (Annexin V/propidium iodide), ES-2; type: cell-based, human; details: ES-2, 50 μM, 24 h; control 2%
Description: as §2

[6] = tested on: TOPK activity (phosphorylation of histone H3 Ser10) in HCT116 cells; experiment: Western blot of phosphorylated histone H3 (Ser10), HCT116; type: cell-based, human
Description: (§3) TOPK proteins were expressed mainly around chromosomal surfaces in mitotic cells, particularly at prophase and metaphase, so the histone was chosen as the substrate for TOPK activity evaluation. Some reports confirmed that TOPK could phosphorylate histone H3 in vitro and in vivo. […] (Figure 3a, 3b, Supplementary Figure 1a, 1b)
(§4) Histones were extracted from cells by disrupting the cells with NETN buffer [150 mM NaCl, 1 mM EDTA, 20 mM Tris-HCl (pH 8.0), 0.5% nonionic detergent IGEPAL CA 630(NP-40), Sigma]. The insoluble fraction was pelleted for 5 minutes in a microcentrifuge (8,400 rpm). Nuclei were extracted with 0.1 M HCl to isolate the total histones. The samples were precipitated with 1 M Tris- HCl (pH 8.0) and then resuspended in ddH2O.
(§5) The harvested cells were lysed with lysis buffer (50 mM Tris-HCl (pH 7.4), 150 mM NaCl, 1 mM EDTA, 1 mM EGTA, […], 5 mM phenylmethanesulfonyluoride (PMSF), 1 mM dithiolthreitol (DTT) containing 1% Triton X-100). Insoluble debris was removed by centrifugation at 12000 rpm for 15 minutes, and protein's content was determined using Bradford reagent (Bio-Rad, USA). Lysate protein (20-40 μg) was subjected to 10% SDS-PAGE and electrophoretically transferred to polyvinylidene difluoride membranes (PVDF) (Millipore, USA). […] Band density was quantified using the Image J software program (NIH).

[7] = tested on: TOPK activity (phosphorylation of histone H3 Ser10) in ES-2 cells; experiment: Western blot of phosphorylated histone H3 (Ser10), ES-2; type: cell-based, human
Description: as §3, §4, §5

HCT116 cells [8] = experiment: Cell cycle distribution by flow cytometry, HCT116; type: cell-based, human; details: HCT116, increasing doses, 48 hours
[9] = tested on: shTOPK and shMock infected cancer cells; experiment: Growth of shMock versus shTOPK infected cells (CCK8); type: cell-based, human; details: 48 hours
From the text: To investigate the growth-promoting role of TOPK in cancer cells, the expression of endogenous TOPK was knocked down in four cancer cells. By lentiviral infection, HCT116, ES-2, A549 and SW1990 cell lines stably expressing low levels of TOPK (shTOPK) were established. As the control, cells were infected with shMock. The abundance of TOPK in these cells was confirmed by western blot analysis (Figure 2a).
The effect of ilaprazolewas examined in shMock and knockdown cell lines with shTOPK. Cells were incubated for 48 hours and growth was determined by cck8 assay.
“The target sequences of oligo siRNAs were as follows: 5′-[…] -3′ for TOPK to produce lentiviral particles.”
The transfection medium was changed at 4 hours after transfection and then cells were cultured for 36 hours. The viral particles were harvested by filtration using a […] syringe filter, then combined with […] of polybrene (Millipore) and infected into 60% confluent HCT-116 cells overnight. The cell culture medium was replaced with fresh complete growth medium for 24 hours and then cells were selected with puromycin ([…]) for 36 hours. The selected cells were used for experiments.

HCT116 xenograft = HCT116 xenograft mouse model, tumor growth; type: in vivo, CB-17/Icr-scid mice; details: for tumor weight: control 1.45 ± 0.33 g
Description: (§6) Estimated tumor volumes of both treating groups were less than that of the control group throughout the treatment. […] Animals were then scarified and the average tumor weights were measured and calculated. The tumor weight of the control group was 1.45 ± 0.33 g, whereas the tumor weights of low-dose and high-dose treated groups were 0.67 ± 0.21g and 0.52 ± 0.11g, respectively (Figure 5c), representing significant reduction.
(§7) CB-17/Icr-scid mice were purchased from Beijing HFK Bioscience CO., LTD (Beijing, China). The animals were maintained under ‘specific pathogen free’ conditions. The mice were randomly divided into three groups: (i) vehicle group (n = 8); (ii) 150 mg/kg ilaprazole-treated group (n = 8); (III) 75 mg/kg ilaprazole-treated group. HCT 116 cells were inoculated subcutaneously (2 × 10^6 cells) into the left flank of each mouse in all groups. Treatment was started after 4 days of cell injection. The duration of the animal study was 19 days. The tumor volume was calculated from measurements of 3 diameters of the individual tumor based on the following formula:
tumor volume (mm^3) = (length × width × height × 0.52). The mice were monitored until tumors reached 1 cm^3 total volume, at which the mice were euthanized and the tumors were extracted. The tumors were dissected and sent for immune-histochemical analysis.

[10] = HCT116 xenograft mouse model, toxicity and body weight; type: in vivo, CB-17/Icr-scid mice
Description: as §6
as §7, with “formula: […]” for “formula:”

[11] = design: method as in SciFinder Academic database; details: ref SciFinder Academic database; cited from earlier work
[12] = rat, in vivo; cited from earlier work

SMILES: CCSc1ccnc(C[S+]([O-])c2nc3ccccc3[nH]2)c1C (centres unmarked) [Disuprazole, disuprazole]
Kd (TOPK): n.b^c
IC50 (HCT116 cells [1]): > 500 µM

SMILES: COc1ccc2nc([S@@+]([O-])Cc3ncc(C)c(OC)c3C)[nH]c2c1 [Esomeprazole, esomeprazole]
Kd (TOPK): n.b^c
IC50 (HCT116 cells [1]): > 500 µM

SMILES: COc1ccnc(C[S+]([O-])c2nc3cc(-n4cccc4)ccc3[nH]2)c1C (centres unmarked) [Ilaprazole, ilaprazole]
Kd (TOPK; read-out: Kd): 111 ± 2.3 µM
IC50 (HCT116 cells [1]): 40 ± 0.6 µM
IC50 (ES-2 cells [2]): 33.2 ± 1 µM
IC50 [3]: 30.1 to 148 µM
apoptotic death (HCT116 cells [4]): 32.03%
apoptotic death (ES-2 cells [5]): 7.62%
phosphorylation of histone H3 (Ser10) [6]: substantially attenuated in a dose-dependent manner
phosphorylation of histone H3 (Ser10) [7]: substantially attenuated in a dose-dependent manner
cell cycle distribution (HCT116 cells [8]): cell cycle arrested at the G1 phase
growth inhibition of shTOPK cells compared with shMock cells [9]: resistant to the inhibitory effect
tumor weight (HCT116 xenograft; 75 mg/kg daily via gavage (low-dose)): 0.67 ± 0.21 g
tumor weight (HCT116 xenograft; 150 mg/kg daily via gavage (high-dose)): 0.52 ± 0.11 g
tumor volume (HCT116 xenograft; 75 and 150 mg/kg daily via gavage, after 2 weeks' treatment): Significant decreases
phosphorylated histone H3 in tumor tissues (immunohistochemistry) (HCT116 xenograft; ilaprazole-treated groups versus vehicle group): substantially decreased
microstructures of sections of the liver, kidney and spleen ([10]; mice treated daily for 15 days): No significant damage
hepatotoxicity and nephrotoxicity ([10]; mice, 75 and 150 mg/kg oral): no obvious hepatotoxicity and nephrotoxicity
mouse body weight ([10]; mice, 75 and 150 mg/kg via gavage): no effect
logP value [11]: 2.882 ± 1.045
LD50 [12]: more than 5000 mg/kg

SMILES: Cc1c(OCC(F)(F)F)ccnc1C[S+]([O-])c1nc2ccccc2[nH]1 (centres unmarked) [Lansoprazole, lansoprazole]
Kd (TOPK; read-out: Kd): 241 µM and 242 µM
IC50 (HCT116 cells [1]): 103 ± 4.1 µM

SMILES: COc1ccc2[nH]c([S+]([O-])Cc3ncc(C)c(OC)c3C)nc2c1 (centres unmarked) [Omeprazole, omeprazole]
Kd (TOPK; read-out: Kd): 174 µM
IC50 (HCT116 cells [1]): 348 ± 7.3 µM

The next lines start with results.

Kd (TOPK; read-out: Kd): 24 µM and 24.2 µM
IC50 (HCT116 cells [1]): 153 ± 8.5 µM
SMILES: COc1ccnc(C[S+]([O-])c2nc3ccc(OC(F)F)cc3[nH]2)c1OC (centres unmarked) [Pantoprazole, pantoprazole]
logP value [11]: 1.571 ± 1.065

Kd (TOPK; read-out: Kd): 324 µM
IC50 (HCT116 cells [1]): > 500 µM
SMILES: COCCCOc1ccnc(C[S+]([O-])c2nc3ccccc3[nH]2)c1C (centres unmarked) [Rabeprazole, rabeprazole]

— PMC5503601 (Oncotarget, 2017)
